Columns and labels:
[1] = target: T1, SST5 (Homo sapiens, UniProt P35346); test: GPCR radioligand binding (RLB) assay, somatostatin SST5, [125I]SST-14; settings: 10 micromolar compound; recombinant human receptor membranes (HEK 293)
T1 construct: purchased Perkin Elmer BioSignal; host or cells: HEK 293
Method: Recombinant human receptors expressed in HEK 293 cells were used for all experiments. Receptor membrane preparations were purchased from Perkin Elmer BioSignal. The labelled ligand used in somatostatin GPCR RLB assays was [^125I]SST-14 and in melanocortin assays was [^125I]NDP-αMSH. All assays were done in a 96-well plate format using either glass fiber filter mats or filter plates. All reagents purchased were of the highest quality.
Specific assay buffer, incubation and washing conditions were optimized for each receptor however they all followed the same general format. The procedures for both filter mat and filter plate formats are based on the receptor manufacturers recommendations or those described extensively in the literature. The procedures are briefly outlined below.
In assays where filter mats are used we incubate receptor membranes, assay buffer and [^125I] labelled ligand in 96 well microplates. Add compounds to incubation mixture and continue incubation for optimized period. Presoak Filter mat GF/B in 0.5% PEI for ˜2 hr at 4° C. On completion of assay mixture incubation add additional 100 μL/well of assay buffer immediately prior to filtration. Filter the assay mixture onto the GF/B filter mat using a cell harvester. Dry the filter mats prior to sealing them into a scintillation counting bag with scintillant. Radioactivity in each well is detected by liquid scintillation counting.
In assays where filter plates are used Multiscreen glass fiber filter plates (Millipore, Cat No MAFCNOB10) are precoated with 0.5% PEI for ˜2 hr at 4° C. All wells are then washed with 200 µl/well assay buffer and filtered using the Multiscreen Separation System. Subsequently receptor membranes, assay buffer and labelled ligands are added to the wells and equilibrated. Compounds for testing are then added to the mixture and incubation is continued for an optimized time. Plates are then put into the Multiscreen Separation System and the assay mixture is filtered through the plate under vacuum. Each well is then washed several times with assay buffer. Plates are then dried prior to putting sealing tape onto the bottom of the plate. Scintillant is added to each well and radioactivity measured by liquid scintillation counting.
Raw data was analysed according to standard methods using either GraphPad Prism software or IDDBS ActivityBase software.

[2] = target: T2, MC4 (Homo sapiens, UniProt P32245); test: GPCR radioligand binding (RLB) assay, melanocortin MC4, [125I]NDP-αMSH; settings: 10 micromolar compound; recombinant human receptor membranes (HEK 293)
T2 construct: purchased Perkin Elmer BioSignal; host or cells: HEK 293
In short: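 Membranes from HEK 293 cells expressing the recombinant human receptor were equilibrated with [125I]SST-14 (SST5) or [125I]NDP-αMSH (MC4), then compound added for an optimized incubation. Bound ligand separated by filtration on PEI-coated glass fiber and counted by liquid scintillation.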

T1 sequence (P35346 whole entry): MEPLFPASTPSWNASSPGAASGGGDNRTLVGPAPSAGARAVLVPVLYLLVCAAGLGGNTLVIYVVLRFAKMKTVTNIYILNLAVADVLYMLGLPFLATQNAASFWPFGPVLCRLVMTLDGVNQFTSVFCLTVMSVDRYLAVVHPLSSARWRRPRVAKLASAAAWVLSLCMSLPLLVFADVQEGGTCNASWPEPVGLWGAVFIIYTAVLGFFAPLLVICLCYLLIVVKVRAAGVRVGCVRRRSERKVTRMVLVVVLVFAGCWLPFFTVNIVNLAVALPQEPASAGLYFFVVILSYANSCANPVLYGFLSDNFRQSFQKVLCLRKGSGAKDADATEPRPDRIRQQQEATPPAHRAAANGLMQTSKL
T2 sequence (P32245 whole entry): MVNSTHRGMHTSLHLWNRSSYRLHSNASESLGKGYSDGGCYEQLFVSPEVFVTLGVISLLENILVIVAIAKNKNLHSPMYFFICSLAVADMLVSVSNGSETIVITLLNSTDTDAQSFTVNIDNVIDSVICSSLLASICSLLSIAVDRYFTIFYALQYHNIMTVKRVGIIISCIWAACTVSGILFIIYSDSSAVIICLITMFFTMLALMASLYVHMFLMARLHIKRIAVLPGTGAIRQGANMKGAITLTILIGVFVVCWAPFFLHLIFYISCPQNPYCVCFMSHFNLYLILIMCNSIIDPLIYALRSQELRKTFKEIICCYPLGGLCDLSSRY

## COC[C@H]1OC(OCc2ccc(-c3ccccc3)cc2)[C@H](NC(=O)CNC(=N)N)[C@@H](OCc2ccc(-c3ccccc3)cc2)[C@@H]1O (stereo partly shown) [Compound 1]
[1]
  SST5 inhibition at 10 micromolar: + (Indicates inhibition greater than . . . 50%)
[2]
  MC4 inhibition at 10 micromolar: + (Indicates inhibition greater than . . . 50%)

## COC[C@H]1OC(OCc2ccccc2)[C@H](NC(=O)CCNC(=N)N)[C@@H](OCc2ccc(-c3ccccc3)cc2)[C@@H]1O (stereo partly shown) [Compound 6]
[1]
  SST5 inhibition at 10 micromolar: + (Indicates inhibition greater than . . . 50%)
[2]
  MC4 inhibition at 10 micromolar: + (Indicates inhibition greater than . . . 50%)

## COC[C@H]1OC(OCc2ccc(Cl)cc2)[C@H](NC(=O)CCNC(=N)N)[C@@H](OCc2ccc(-c3ccccc3)cc2)[C@@H]1O (stereo partly shown) [Compound 13]
[1]
  SST5 inhibition at 10 micromolar: + (Indicates inhibition greater than . . . 50%)
[2]
  MC4 inhibition at 10 micromolar: + (Indicates inhibition greater than . . . 50%)

## COC[C@H]1OC(OCc2ccc(Cl)cc2)[C@H](NC(=O)CCNC(=N)N)[C@@H](OCc2ccc3ccccc3c2)[C@@H]1O (stereo partly shown) [Compound 14]
[1]
  SST5 inhibition at 10 micromolar: + (Indicates inhibition greater than . . . 50%)
[2]
  MC4 inhibition at 10 micromolar: + (Indicates inhibition greater than . . . 50%)

## COC[C@H]1OC(OCc2ccc(Cl)cc2)[C@H](NC(=O)CCCNC(=N)N)[C@@H](OCc2ccc3ccccc3c2)[C@@H]1O (stereo partly shown) [Compound 15]
[1]
  SST5 inhibition at 10 micromolar: + (Indicates inhibition greater than . . . 50%)
[2]
  MC4 inhibition at 10 micromolar: + (Indicates inhibition greater than . . . 50%)

## COC[C@H]1OC(OCc2ccc(-c3ccccc3)cc2)[C@H](NC(=O)CCCN)[C@@H](OCc2ccc(-c3ccccc3)cc2)[C@@H]1O (stereo partly shown) [Compound 28]
[1]
  SST5 inhibition at 10 micromolar: + (Indicates inhibition greater than . . . 50%)
[2]
  MC4 inhibition at 10 micromolar: + (Indicates inhibition greater than . . . 50%)

## COC[C@H]1OC(OCc2ccc(-c3ccccc3)cc2)[C@H](NC(=O)CCCNC(=N)N)[C@@H](OCc2ccc(-c3ccccc3)cc2)[C@@H]1O (stereo partly shown) [Compound 29]
[1]
  SST5 inhibition at 10 micromolar: + (Indicates inhibition greater than . . . 50%)
[2]
  MC4 inhibition at 10 micromolar: + (Indicates inhibition greater than . . . 50%)

## COC[C@H]1OC(OCc2ccc(-c3ccccc3)cc2)[C@H](NC(=O)CCCNC(=N)N)[C@@H](OCc2ccc3ccccc3c2)[C@@H]1O (stereo partly shown) [Compound 30]
[1]
  SST5 inhibition at 10 micromolar: + (Indicates inhibition greater than . . . 50%)
[2]
  MC4 inhibition at 10 micromolar: + (Indicates inhibition greater than . . . 50%)

## COC[C@H]1OC(OCc2ccc(-c3ccccc3)cc2)[C@H](NC(=O)CCNC(=N)N)[C@@H](OCc2ccc(Cl)cc2)[C@@H]1O (stereo partly shown) [Compound 32]
[1]
  SST5 inhibition at 10 micromolar: + (Indicates inhibition greater than . . . 50%)
[2]
  MC4 inhibition at 10 micromolar: + (Indicates inhibition greater than . . . 50%)

## COC[C@H]1OC(OCc2ccc(-c3ccccc3)cc2)[C@H](NC(=O)CCCN)[C@@H](OCc2ccc(Cl)cc2)[C@@H]1O (stereo partly shown) [Compound 33]
[1]
  SST5 inhibition at 10 micromolar: + (Indicates inhibition greater than . . . 50%)
[2]
  MC4 inhibition at 10 micromolar: + (Indicates inhibition greater than . . . 50%)

## COC[C@H]1OC(OCc2ccc(-c3ccccc3)cc2)[C@H](NC(=O)CCCNC(=N)N)[C@@H](OCc2ccc(Cl)cc2)[C@@H]1O (stereo partly shown) [Compound 34]
[1]
  SST5 inhibition at 10 micromolar: + (Indicates inhibition greater than . . . 50%)
[2]
  MC4 inhibition at 10 micromolar: + (Indicates inhibition greater than . . . 50%)

## COC[C@H]1OC(OCc2ccc3ccccc3c2)[C@H](NC(=O)CNC(=N)N)[C@@H](OCc2ccc(-c3ccccc3)cc2)[C@@H]1O (stereo partly shown) [Compound 35]
[1]
  SST5 inhibition at 10 micromolar: + (Indicates inhibition greater than . . . 50%)
[2]
  MC4 inhibition at 10 micromolar: + (Indicates inhibition greater than . . . 50%)

## COC[C@H]1OC(OCc2ccc3ccccc3c2)[C@H](NC(=O)CCNC(=N)N)[C@@H](OCc2ccc(-c3ccccc3)cc2)[C@@H]1O (stereo partly shown) [Compound 36]
[1]
  SST5 inhibition at 10 micromolar: + (Indicates inhibition greater than . . . 50%)
[2]
  MC4 inhibition at 10 micromolar: + (Indicates inhibition greater than . . . 50%)

## COC[C@H]1OC(OCc2ccc3ccccc3c2)[C@H](NC(=O)CCCN)[C@@H](OCc2ccc(-c3ccccc3)cc2)[C@@H]1O (stereo partly shown) [Compound 37]
[1]
  SST5 inhibition at 10 micromolar: + (Indicates inhibition greater than . . . 50%)
[2]
  MC4 inhibition at 10 micromolar: + (Indicates inhibition greater than . . . 50%)

## COC[C@H]1OC(OCc2ccc3ccccc3c2)[C@H](NC(=O)CCNC(=N)N)[C@@H](OCc2ccc3ccccc3c2)[C@@H]1O (stereo partly shown) [Compound 38]
[1]
  SST5 inhibition at 10 micromolar: + (Indicates inhibition greater than . . . 50%)
[2]
  MC4 inhibition at 10 micromolar: + (Indicates inhibition greater than . . . 50%)

## COC[C@H]1OC(OCc2ccc3ccccc3c2)[C@H](NC(=O)CCCN)[C@@H](OCc2ccc3ccccc3c2)[C@@H]1O (stereo partly shown) [Compound 39]
[1]
  SST5 inhibition at 10 micromolar: + (Indicates inhibition greater than . . . 50%)
[2]
  MC4 inhibition at 10 micromolar: + (Indicates inhibition greater than . . . 50%)

## COC[C@H]1OC(OCc2ccc3ccccc3c2)[C@H](NC(=O)CCCNC(=N)N)[C@@H](OCc2ccc3ccccc3c2)[C@@H]1O (stereo partly shown) [Compound 40]
[1]
  SST5 inhibition at 10 micromolar: + (Indicates inhibition greater than . . . 50%)
[2]
  MC4 inhibition at 10 micromolar: + (Indicates inhibition greater than . . . 50%)

## COC[C@H]1OC(OCc2ccc3ccccc3c2)[C@H](NC(=O)CCCNC(=N)N)[C@@H](OCc2ccc(Cl)cc2)[C@@H]1O (stereo partly shown) [Compound 43]
[1]
  SST5 inhibition at 10 micromolar: + (Indicates inhibition greater than . . . 50%)
[2]
  MC4 inhibition at 10 micromolar: + (Indicates inhibition greater than . . . 50%)

## COC[C@H]1OC(OCc2ccc(Cl)cc2)[C@H](NC(=O)CCCNC(=N)N)[C@@H](OCc2ccc(-c3ccccc3)cc2)[C@@H]1O (stereo partly shown) [Compound 45]
[1]
  SST5 inhibition at 10 micromolar: + (Indicates inhibition greater than . . . 50%)
[2]
  MC4 inhibition at 10 micromolar: + (Indicates inhibition greater than . . . 50%)

## COC[C@H]1OC(OCc2ccc(Cl)cc2)[C@H](NC(=O)CCCN)[C@@H](OCc2ccc3ccccc3c2)[C@@H]1O (stereo partly shown) [Compound 46]
[1]
  SST5 inhibition at 10 micromolar: + (Indicates inhibition greater than . . . 50%)
[2]
  MC4 inhibition at 10 micromolar: + (Indicates inhibition greater than . . . 50%)

## COC[C@H]1OC(OCCc2ccccc2)[C@H](NC(=O)CCCNC(=N)N)[C@@H](OCc2ccc(-c3ccccc3)cc2)[C@@H]1O (stereo partly shown) [Compound 49]
[1]
  SST5 inhibition at 10 micromolar: + (Indicates inhibition greater than . . . 50%)
[2]
  MC4 inhibition at 10 micromolar: + (Indicates inhibition greater than . . . 50%)

## COC[C@H]1OC(OCc2ccc(-c3ccccc3)cc2)[C@H](NC(=O)CCCN)[C@@H](OCc2ccc(-c3ccccc3)cc2)[C@@H]1O (stereo partly shown) [Compound 53]
[1]
  SST5 inhibition at 10 micromolar: + (Indicates inhibition greater than . . . 50%)
[2]
  MC4 inhibition at 10 micromolar: + (Indicates inhibition greater than . . . 50%)

## CO[C@H]1[C@H](O)[C@@H](COCc2ccc(-c3ccccc3)cc2)OC(OCc2ccc(-c3ccccc3)cc2)[C@@H]1NC(=O)CNC(=N)N (stereo partly shown) [Compound 56]
[1]
  SST5 inhibition at 10 micromolar: + (Indicates inhibition greater than . . . 50%)
[2]
  MC4 inhibition at 10 micromolar: + (Indicates inhibition greater than . . . 50%)

## CO[C@H]1[C@H](O)[C@@H](COCc2ccc(-c3ccccc3)cc2)OC(OCc2ccc(-c3ccccc3)cc2)[C@@H]1NC(=O)CCNC(=N)N (stereo partly shown) [Compound 57]
[1]
  SST5 inhibition at 10 micromolar: + (Indicates inhibition greater than . . . 50%)
[2]
  MC4 inhibition at 10 micromolar: + (Indicates inhibition greater than . . . 50%)

## COC1C(O)C(COCc2ccc3ccccc3c2)OC(OCc2ccc(-c3ccccc3)cc2)C1NC(=O)CCCN (stereo not shown) [Compound 61]
[1]
  SST5 inhibition at 10 micromolar: + (Indicates inhibition greater than . . . 50%)
[2]
  MC4 inhibition at 10 micromolar: + (Indicates inhibition greater than . . . 50%)

## COC1C(O)C(COCc2ccc(-c3ccccc3)cc2)OC(OCc2ccc3ccccc3c2)C1NC(=O)CCCN (stereo not shown) [Compound 69]
[1]
  SST5 inhibition at 10 micromolar: + (Indicates inhibition greater than . . . 50%)
[2]
  MC4 inhibition at 10 micromolar: + (Indicates inhibition greater than . . . 50%)

## COC1C(O)C(COCc2ccc3ccccc3c2)OC(OCc2ccc3ccccc3c2)C1NC(=O)CCCN (stereo not shown) [Compound 73]
[1]
  SST5 inhibition at 10 micromolar: + (Indicates inhibition greater than . . . 50%)
[2]
  MC4 inhibition at 10 micromolar: + (Indicates inhibition greater than . . . 50%)

## COC1C(O)C(COCc2ccc(Cl)cc2)OC(OCc2ccc3ccccc3c2)C1NC(=O)CCCN (stereo not shown) [Compound 77]
[1]
  SST5 inhibition at 10 micromolar: + (Indicates inhibition greater than . . . 50%)
[2]
  MC4 inhibition at 10 micromolar: + (Indicates inhibition greater than . . . 50%)

## COC1C(O)C(COCc2ccc3ccccc3c2)OC(OCc2ccccc2)C1NC(=O)CNC(=N)N (stereo not shown) [Compound 80]
[1]
  SST5 inhibition at 10 micromolar: + (Indicates inhibition greater than . . . 50%)
[2]
  MC4 inhibition at 10 micromolar: + (Indicates inhibition greater than . . . 50%)

Source: patent publication US7994140B2, “Classes of compounds that interact with GPCRs” (Alchemia Limited, priority 2002, dated 2011)
